Measured values as given in ChEMBL document CHEMBL3507680, “University of Dundee, Gates Library screen for HepG2 cell viability”.

Test: Human HepG2 cell viability assay in 384 well format
Assay type: toxicity, cell-based
Parameters: dose 125 nL, time 70.5 hour; cytotoxicity at 70.5 h: concentration not given beside the values
Settings: HepG2 cells, read-out: Inhibition
Work on CCCS(=O)(=O)N1CCC(NCc2c(C)nn(C)c2OC)CC1 yielded a cytotoxicity at 70.5 h of -7.02%.
Work on COC(=O)c1cccc(C(=O)NCc2ccco2)n1 yielded a cytotoxicity at 70.5 h of -15.9%.
In the case of COCCN1CCC(NCc2ccc(C#N)cc2)C1 (configuration not stated), the cytotoxicity at 70.5 h is reported as 34.1%.
Molecule CCc1nnc(NC(=O)Cc2c(C)nc(C)[nH]c2=O)s1 has a cytotoxicity at 70.5 h of 13.4%.
With Cc1cc(C)n(C2CN(CCC(=O)NC3CCCCC3)C2)n1 the cytotoxicity at 70.5 h was -4.9%.
With COc1ccc(CC2CN(C(=O)c3coc(C)n3)CCO2)cc1 (configuration not stated) the cytotoxicity at 70.5 h was -9.96%.
O=C(NC[C@]12COC[C@H]1CN(Cc1ccncc1)C2)c1ccco1 showed a cytotoxicity at 70.5 h of -10.9%.
CCNC(=O)[C@@H]1C[C@H](N)CN1Cc1ccc(-c2cc[nH]n2)o1 showed a cytotoxicity at 70.5 h of 9.98%.
In the case of O=C(CN1CCOc2ccccc2C1)NCc1cc2n(n1)CCCNC2, the cytotoxicity at 70.5 h is reported as -2.45%.
In the case of Cn1cc(N2CCN(c3ccc(C#N)c(Cl)c3)CC2=O)cn1, the cytotoxicity at 70.5 h is reported as -14.1%.
Work on CCCc1ccc(CN2CCN(C(=O)NCC)[C@H]3CS(=O)(=O)C[C@H]32)o1 yielded a cytotoxicity at 70.5 h of -15.3%.
With CN1C[C@H](O)[C@]2(CCN(C(=O)NCc3ccccc3)C2)S1(=O)=O the cytotoxicity at 70.5 h was -8.64%.
Molecule OC(c1ccccn1)C1CCN(Cc2cc3n(n2)CCCNC3)CC1 (configuration not stated) has a cytotoxicity at 70.5 h of -21%.
COCCC1(CO)CCCN(Cc2ccc(C(F)(F)F)cc2)C1 (configuration not stated) gave a cytotoxicity at 70.5 h of -4.92%.
With CCN(CC)CCSc1nnc(N2CCN(c3ccccc3)CC2)s1 the cytotoxicity at 70.5 h was -2.44%.
Work on CN(C)C(=O)N1CCc2c(COCC3CC3)cncc2C1 yielded a cytotoxicity at 70.5 h of -4.34%.
O=C1NC(c2ccccc2)=N[C@@]12CC[C@@H]1CN(Cc3cccnc3)C[C@@H]12 gave a cytotoxicity at 70.5 h of -0.723%.
With CS(=O)(=O)N[C@@H]1CCN(Cc2cccs2)[C@H]1Cc1cccnc1 the cytotoxicity at 70.5 h was -18.1%.
In the case of CCOc1cc(CN(C)CC(C)(C)O)ccc1OC(F)F, the cytotoxicity at 70.5 h is reported as 4.76%.
In the case of NC(=O)NC(=O)CCn1ccc(-c2ccsc2)n1, the cytotoxicity at 70.5 h is reported as -1.15%.
Molecule CC(N)Cc1ccccc1Sc1ccccc1 (configuration not stated) has a cytotoxicity at 70.5 h of -1.45%.
Cc1nc(CN2CCCC(Cn3cc(CCO)nn3)C2)c[nH]1 (configuration not stated) showed a cytotoxicity at 70.5 h of -1.03%.
Work on CNS(=O)(=O)Cc1cccc(CNc2ccc(C#N)cn2)c1 yielded a cytotoxicity at 70.5 h of -10.5%.
Work on O=C1CC(c2ccccc2)c2sc(C(=O)O)c(-c3ccccc3)c2N1 (configuration not stated) yielded a cytotoxicity at 70.5 h of -8.23%.
In the case of CCn1c(C(=O)N2CCN(C(=O)COC)CC2)cc2ccccc21, the cytotoxicity at 70.5 h is reported as 26.3%.
For N#Cc1c(C2CCOC2)cc(-c2ccc(N3CCCCC3)cc2)nc1N (configuration not stated), the cytotoxicity at 70.5 h was -7.42%.
Molecule CCOC(=O)CNC(=O)NCc1cc(C)n(-c2ccccc2OC)c1C has a cytotoxicity at 70.5 h of 14.4%.
For Cc1cccnc1C(=O)N1CCCC(Cc2cncc3ccccc23)C1 (configuration not stated), the cytotoxicity at 70.5 h was -3.08%.
Molecule Cc1noc(C)c1CN(C)C(=O)C1CCCCN1CC(C)C (configuration not stated) has a cytotoxicity at 70.5 h of 5.24%.
For CC(C)c1nnc2n1CCN(C(=O)Cc1csc(C(C)(C)C)n1)C2, the cytotoxicity at 70.5 h was -8.69%.
Molecule Cc1nc[nH]c1-c1c(-c2ccccc2)ncn1C1CCNC1 (configuration not stated) has a cytotoxicity at 70.5 h of -1.75%.
In the case of O=C(CN1CCOc2ccc(Cl)cc21)NCCCn1cccn1, the cytotoxicity at 70.5 h is reported as 9.56%.
Work on CNC(=O)CCN(C)CC1(c2ccc(Br)cc2)CC1 yielded a cytotoxicity at 70.5 h of -0.48%.
c1nc(N2CCCC(Cn3cncn3)C2)c2sccc2n1 (configuration not stated) gave a cytotoxicity at 70.5 h of -2.8%.
O=c1ccc2c(n1Cc1ccncc1)CCN(Cc1ccoc1)CC2 showed a cytotoxicity at 70.5 h of 1.47%.
For COc1cc(CC(O)CC#N)c(OC)c2c1OCO2 (configuration not stated), the cytotoxicity at 70.5 h was -9.38%.
For Cc1ccc2cc(CN(C)Cc3ccccn3)c(=O)[nH]c2c1, the cytotoxicity at 70.5 h was 12.4%.
In the case of COCc1ncc(CN2CC[C@@](C)(O)[C@@H](Cc3ccccc3)C2)cn1, the cytotoxicity at 70.5 h is reported as -1.9%.
Cn1nnc2cc(C(=O)N3CCCC3Cc3ccccc3)ccc21 (configuration not stated) gave a cytotoxicity at 70.5 h of -1.35%.
Cc1cc(NC(=O)c2ccc(C)c(F)c2)[nH]n1 showed a cytotoxicity at 70.5 h of -1.85%.
Molecule CC(NC(=O)CNC(=O)OC(C)(C)C)c1ccc(Cl)s1 (configuration not stated) has a cytotoxicity at 70.5 h of 10.9%.
CCn1c(SCC(=O)O)nnc1C(C)NC(=O)c1ccc(Cl)cc1 (configuration not stated) showed a cytotoxicity at 70.5 h of -8.19%.
CC(C)Cn1cncc1-c1nc2c([nH]1)CCCNC2=O showed a cytotoxicity at 70.5 h of -6.28%.
Cc1ccsc1-c1nccn1CCN1CCCOC1=O gave a cytotoxicity at 70.5 h of -9.87%.
CSCCC(C)(O)CNS(=O)(=O)Cc1ccc(F)cc1 (configuration not stated) gave a cytotoxicity at 70.5 h of -17%.
Molecule CS(=O)(=O)NCCN1CCCC1c1ccc(Cl)cc1 (configuration not stated) has a cytotoxicity at 70.5 h of 12%.
With CCCSCC(=O)N1CCCC(CO)(CCC)C1 (configuration not stated) the cytotoxicity at 70.5 h was -22.8%.
O=c1cc(Cn2cncn2)nc2n1CCCN(Cc1ccoc1)C2 showed a cytotoxicity at 70.5 h of -0.379%.
COc1ccccc1CN1CC(O)CN(C(=O)OCC(C)C)CC1=O (configuration not stated) showed a cytotoxicity at 70.5 h of -10.9%.
With c1cnc(N2CC3(CCN(Cc4ccncc4)C3)C2)nc1 the cytotoxicity at 70.5 h was -6.13%.
In the case of CCCc1n[nH]c(C2CN(Cc3nnc(C4CC4)o3)CCO2)n1 (configuration not stated), the cytotoxicity at 70.5 h is reported as 8.7%.
With CC(C(=O)Nc1nccs1)N(C)Cc1cccc(C#N)c1 (configuration not stated) the cytotoxicity at 70.5 h was -11.6%.
For C1CCC(OCCN2CCN(CCOC3CCCCC3)CC2)CC1, the cytotoxicity at 70.5 h was -5.88%.
CCN1CCN(Cc2c(C3CCCC3)[nH]c3ncccc23)CC1 showed a cytotoxicity at 70.5 h of -6.15%.
In the case of COCCOc1ccc(-c2noc([C@@H]3CCCN3C3CCC3)n2)cn1, the cytotoxicity at 70.5 h is reported as -3.43%.
Work on Cc1nn(C)c(N(C)C)c1CNC(C)COc1ccc(F)cc1 (configuration not stated) yielded a cytotoxicity at 70.5 h of -4.85%.
In the case of C[S+]([O-])c1ccc(CNc2ccc(F)cc2OC(F)F)cc1 (configuration not stated), the cytotoxicity at 70.5 h is reported as -0.988%.
